Test results from the supplement of paper PMC13207355.
Structures can show the parent of a compound that is named as a salt.

Tests used:
Conditions in all cases: exposure time: 72 h
[1] = tested on: E13 (patient-derived glioblastoma stem cells of classical subtype); experiment: phenotypic distance (Euclidean, principal components) from DMSO controls (arbitrary units); higher = stronger morphological change
[2] = tested on: E28 (patient-derived glioblastoma stem cells of classical subtype); experiment: as above
[3] = tested on: FT3469 (normal neural stem cell line); experiment: as above
[4] = tested on: E57 (patient-derived glioblastoma stem cells of mesenchymal subtype); experiment: as above
[5] = tested on: E31 (patient-derived glioblastoma stem cells of proneural subtype); experiment: as above
[6] = tested on: E21 (patient-derived glioblastoma stem cells of mesenchymal subtype); experiment: as above
[7] = tested on: E34 (patient-derived glioblastoma stem cells of proneural subtype); experiment: as above
[8] = tested on: E13; experiment: surviving fraction (nuclei count normalised to DMSO); higher = more cells surviving (less toxic)
[9] = tested on: E28; experiment: as above
[10] = tested on: FT3469; experiment: as above
[11] = tested on: E57; experiment: as above
[12] = tested on: E31; experiment: as above
[13] = tested on: E21; experiment: as above
[14] = tested on: E34; experiment: as above
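Throughout, for phenotypic distance (Euclidean, principal components) from DMSO controls: cell Painting imaging in 384-well plates, CellProfiler features reduced to at least 20 principal components, Euclidean distance versus same-plate DMSO vehicle wells (0.1% v/v), median over six images per well.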
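Throughout, for surviving fraction (nuclei count normalised to DMSO): nuclei counted by high-content imaging of Hoechst-stained cells in laminin-coated 384-well plates, relative to 0.1% DMSO vehicle wells, with staurosporine as cell-death control.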

Nc1nc(=O)c2nc(CNc3ccc(C(=O)N[C@@H](CCC(=O)O)C(=O)O)cc3)cnc2[nH]1 [Folic acid]
Conditions	phenotypic distance	surviving fraction
[1], 4.1 nM	0.778	–
[1], 12.3 nM	0.355	–
[1], 37 nM	0.501	–
[1], 111.1 nM	0.396	–
[1], 333.3 nM	0.695	–
[1], 1000 nM	0.593	–
[1], 3000 nM	0.805	–
[2], 4.1 nM	0.522	–
[2], 12.3 nM	0.383	–
[2], 37 nM	0.987	–
[2], 111.1 nM	0.572	–
[2], 333.3 nM	0.378	–
[2], 1000 nM	0.745	–
[2], 3000 nM	0.583	–
[3], 4.1 nM	0.931	–
[3], 12.3 nM	0.68	–
[3], 37 nM	0.676	–
[3], 111.1 nM	0.509	–
[3], 333.3 nM	0.439	–
[3], 1000 nM	1.06	–
[3], 3000 nM	0.675	–
[4], 4.1 nM	0.364	–
[4], 12.3 nM	0.555	–
[4], 37 nM	0.5	–
[4], 111.1 nM	0.927	–
[4], 333.3 nM	0.637	–
[4], 1000 nM	0.333	–
[4], 3000 nM	0.748	–
[5], 4.1 nM	0.277	–
[5], 12.3 nM	0.448	–
[5], 37 nM	0.256	–
[5], 111.1 nM	0.408	–
[5], 333.3 nM	0.439	–
[5], 1000 nM	0.452	–
[5], 3000 nM	0.335	–
[6], 4.1 nM	0.612	–
[6], 12.3 nM	0.186	–
[6], 37 nM	0.499	–
[6], 111.1 nM	0.624	–
[6], 333.3 nM	0.464	–
[6], 1000 nM	0.432	–
[6], 3000 nM	0.539	–
[7], 4.1 nM	1.01	–
[7], 12.3 nM	0.395	–
[7], 37 nM	0.531	–
[7], 111.1 nM	0.763	–
[7], 333.3 nM	0.579	–
[7], 1000 nM	0.38	–
[7], 3000 nM	0.822	–
[8], 4.1 nM	–	0.982
[8], 12.3 nM	–	1.06
[8], 37 nM	–	0.964
[8], 111.1 nM	–	1
[8], 333.3 nM	–	1.17
[8], 1000 nM	–	1.02
[8], 3000 nM	–	1.21
[9], 4.1 nM	–	0.971
[9], 12.3 nM	–	1.05
[9], 37 nM	–	1.11
[9], 111.1 nM	–	0.954
[9], 333.3 nM	–	1.01
[9], 1000 nM	–	1.31
[9], 3000 nM	–	0.925
[10], 4.1 nM	–	1.16
[10], 12.3 nM	–	1.03
[10], 37 nM	–	1.12
[10], 111.1 nM	–	1.01
[10], 333.3 nM	–	1.05
[10], 1000 nM	–	1.1
[10], 3000 nM	–	0.939
[11], 4.1 nM	–	1.03
[11], 12.3 nM	–	1.03
[11], 37 nM	–	0.994
[11], 111.1 nM	–	0.948
[11], 333.3 nM	–	1.01
[11], 1000 nM	–	1.03
[11], 3000 nM	–	0.903
[12], 4.1 nM	–	1.13
[12], 12.3 nM	–	0.968
[12], 37 nM	–	0.961
[12], 111.1 nM	–	0.969
[12], 333.3 nM	–	1.03
[12], 1000 nM	–	1.14
[12], 3000 nM	–	0.872
[13], 4.1 nM	–	0.915
[13], 12.3 nM	–	1.07
[13], 37 nM	–	1
[13], 111.1 nM	–	1.07
[13], 333.3 nM	–	1.01
[13], 1000 nM	–	1.07
[13], 3000 nM	–	0.972
[14], 4.1 nM	–	1.15
[14], 12.3 nM	–	1.03
[14], 37 nM	–	0.979
[14], 111.1 nM	–	1.12
[14], 333.3 nM	–	0.974
[14], 1000 nM	–	1.04
[14], 3000 nM	–	0.925

COc1ccc(/C=C\c2cc(OC)c(OC)c(OC)c2)cc1OP(=O)(O)O [Fosbretabulin Disodium]
Conditions	phenotypic distance	surviving fraction
[1], 4.1 nM	1.22	–
[1], 12.3 nM	2.08	–
[1], 37 nM	5.08	–
[1], 111.1 nM	4.95	–
[1], 333.3 nM	5.64	–
[1], 1000 nM	8.31	–
[1], 3000 nM	7.96	–
[2], 4.1 nM	0.427	–
[2], 12.3 nM	0.345	–
[2], 37 nM	0.559	–
[2], 111.1 nM	0.674	–
[2], 333.3 nM	1.52	–
[2], 1000 nM	3.18	–
[2], 3000 nM	3.86	–
[3], 4.1 nM	0.525	–
[3], 12.3 nM	0.86	–
[3], 37 nM	0.542	–
[3], 111.1 nM	0.517	–
[3], 333.3 nM	1.3	–
[3], 1000 nM	2.97	–
[3], 3000 nM	3.41	–
[4], 4.1 nM	0.784	–
[4], 12.3 nM	0.887	–
[4], 37 nM	0.575	–
[4], 111.1 nM	1.01	–
[4], 333.3 nM	2.68	–
[4], 1000 nM	5.08	–
[4], 3000 nM	5.09	–
[5], 4.1 nM	0.483	–
[5], 12.3 nM	0.846	–
[5], 37 nM	0.502	–
[5], 111.1 nM	0.681	–
[5], 333.3 nM	1.6	–
[5], 1000 nM	4.42	–
[5], 3000 nM	7.65	–
[6], 4.1 nM	0.897	–
[6], 12.3 nM	0.887	–
[6], 37 nM	1.98	–
[6], 111.1 nM	5.67	–
[6], 333.3 nM	6.69	–
[6], 1000 nM	8.1	–
[6], 3000 nM	6.31	–
[7], 4.1 nM	0.709	–
[7], 12.3 nM	0.552	–
[7], 37 nM	0.5	–
[7], 111.1 nM	0.935	–
[7], 333.3 nM	1.29	–
[7], 1000 nM	3.14	–
[7], 3000 nM	7.56	–
[8], 4.1 nM	–	0.8
[8], 12.3 nM	–	0.905
[8], 37 nM	–	0.361
[8], 111.1 nM	–	0.241
[8], 333.3 nM	–	0.171
[8], 1000 nM	–	0.175
[8], 3000 nM	–	0.0977
[9], 4.1 nM	–	1.09
[9], 12.3 nM	–	1
[9], 37 nM	–	0.905
[9], 111.1 nM	–	0.938
[9], 333.3 nM	–	0.894
[9], 1000 nM	–	0.41
[9], 3000 nM	–	0.293
[10], 4.1 nM	–	0.907
[10], 12.3 nM	–	1.03
[10], 37 nM	–	1.03
[10], 111.1 nM	–	0.976
[10], 333.3 nM	–	0.745
[10], 1000 nM	–	0.503
[10], 3000 nM	–	0.346
[11], 4.1 nM	–	0.953
[11], 12.3 nM	–	0.934
[11], 37 nM	–	0.943
[11], 111.1 nM	–	0.986
[11], 333.3 nM	–	0.604
[11], 1000 nM	–	0.077
[11], 3000 nM	–	0.0927
[12], 4.1 nM	–	0.927
[12], 12.3 nM	–	1.01
[12], 37 nM	–	0.765
[12], 111.1 nM	–	0.917
[12], 333.3 nM	–	0.54
[12], 1000 nM	–	0.123
[12], 3000 nM	–	0.0441
[13], 4.1 nM	–	0.889
[13], 12.3 nM	–	0.951
[13], 37 nM	–	0.847
[13], 111.1 nM	–	0.415
[13], 333.3 nM	–	0.176
[13], 1000 nM	–	0.101
[13], 3000 nM	–	0.0981
[14], 4.1 nM	–	0.966
[14], 12.3 nM	–	0.962
[14], 37 nM	–	1.06
[14], 111.1 nM	–	0.942
[14], 333.3 nM	–	0.86
[14], 1000 nM	–	0.521
[14], 3000 nM	–	0.348

N=C(N)c1ccc(-c2ccc(-c3ccc(C(=N)N)cc3)o2)cc1 [Furamidine dihydrochloride]
Conditions	phenotypic distance	surviving fraction
[1], 4.1 nM	0.262	–
[1], 12.3 nM	0.642	–
[1], 37 nM	0.687	–
[1], 111.1 nM	0.7	–
[1], 333.3 nM	1.05	–
[1], 1000 nM	1.58	–
[1], 3000 nM	2.41	–
[2], 4.1 nM	0.942	–
[2], 12.3 nM	0.731	–
[2], 37 nM	0.378	–
[2], 111.1 nM	0.509	–
[2], 333.3 nM	0.894	–
[2], 1000 nM	1.65	–
[2], 3000 nM	3.07	–
[3], 4.1 nM	0.956	–
[3], 12.3 nM	0.513	–
[3], 37 nM	0.833	–
[3], 111.1 nM	0.595	–
[3], 333.3 nM	0.891	–
[3], 1000 nM	1.39	–
[3], 3000 nM	3.24	–
[4], 4.1 nM	0.435	–
[4], 12.3 nM	0.369	–
[4], 37 nM	0.461	–
[4], 111.1 nM	0.581	–
[4], 333.3 nM	0.809	–
[4], 1000 nM	1.18	–
[4], 3000 nM	2	–
[5], 4.1 nM	0.537	–
[5], 12.3 nM	0.559	–
[5], 37 nM	0.53	–
[5], 111.1 nM	0.588	–
[5], 333.3 nM	0.79	–
[5], 1000 nM	1.64	–
[5], 3000 nM	2.69	–
[6], 4.1 nM	2.21	–
[6], 12.3 nM	0.291	–
[6], 37 nM	0.446	–
[6], 111.1 nM	0.567	–
[6], 333.3 nM	1.09	–
[6], 1000 nM	1.6	–
[6], 3000 nM	3.09	–
[7], 4.1 nM	0.516	–
[7], 12.3 nM	0.962	–
[7], 37 nM	0.515	–
[7], 111.1 nM	0.866	–
[7], 333.3 nM	1.16	–
[7], 1000 nM	2.15	–
[7], 3000 nM	3.96	–
[8], 4.1 nM	–	0.977
[8], 12.3 nM	–	0.987
[8], 37 nM	–	0.954
[8], 111.1 nM	–	0.919
[8], 333.3 nM	–	1.02
[8], 1000 nM	–	1.1
[8], 3000 nM	–	1.07
[9], 4.1 nM	–	0.932
[9], 12.3 nM	–	1.02
[9], 37 nM	–	0.995
[9], 111.1 nM	–	1.04
[9], 333.3 nM	–	0.901
[9], 1000 nM	–	1.05
[9], 3000 nM	–	0.861
[10], 4.1 nM	–	0.904
[10], 12.3 nM	–	0.883
[10], 37 nM	–	0.856
[10], 111.1 nM	–	0.949
[10], 333.3 nM	–	1.12
[10], 1000 nM	–	1
[10], 3000 nM	–	1
[11], 4.1 nM	–	0.99
[11], 12.3 nM	–	0.991
[11], 37 nM	–	1.08
[11], 111.1 nM	–	0.988
[11], 333.3 nM	–	0.981
[11], 1000 nM	–	0.956
[11], 3000 nM	–	0.828
[12], 4.1 nM	–	0.988
[12], 12.3 nM	–	0.965
[12], 37 nM	–	0.911
[12], 111.1 nM	–	1.08
[12], 333.3 nM	–	1.01
[12], 1000 nM	–	1.04
[12], 3000 nM	–	1.2
[13], 4.1 nM	–	0.927
[13], 12.3 nM	–	0.912
[13], 37 nM	–	1
[13], 111.1 nM	–	1.01
[13], 333.3 nM	–	1.02
[13], 1000 nM	–	1.03
[13], 3000 nM	–	0.975
[14], 4.1 nM	–	0.983
[14], 12.3 nM	–	1.13
[14], 37 nM	–	1.1
[14], 111.1 nM	–	1.21
[14], 333.3 nM	–	1.2
[14], 1000 nM	–	1.09
[14], 3000 nM	–	1.2
